# Source: patent US10669545B2, “Tumor cell malignant transformation suppressor and anti-tumor agent” (JAPAN SCIENCE AND TECHNOLOGY AGENCY, priority 2015, dated 2020)
# Legend:
# Assay type in all cases: cell-based, human
# A375 cells [1] = assay: Cell cycle analysis (PI staining, flow cytometry), A375 cells; conditions: average value
# Procedure: In cell cycle analysis, first, the cells were cultured in serum-free medium for 24 hours and then cultured in media containing 10% FBS for 24 hours. Next, the cells were fixed, stained with propidium iodide (PI), and then flow cytometry analysis (SH800, manufactured by Sony) was performed. The obtained data was analyzed using analysis software, FlowJo (manufactured by TOMY DIGITAL BIOLOGY, Tokyo, Japan). As a result, a sub-G1 population of cells increased in the cells in which Zic5 gene knockdown occurred.
# Furthermore, a cell cycle of each cell was examined with respect to A375 cells. An average value (SD) of percentages (%) of cells in G1 population, S population, and G2M population of each cell is shown in Table 9. […] As a result, percentages of cells in the S population and G2M population of A375 cells were reduced by PDGFD gene knockdown.
# DU145 cells [2] = assay: Annexin V-positive cells, DU145 cells; conditions: siRNA then docetaxel 5 nM for 24 hours
# Procedure: (§1) The percentage of Annexin V-positive cells was measured as follows. First, FITC labeled Annexin V (manufactured by MBL, Nagoya, Japan) and Hoechst33342 were added to each cell and incubated for 40 minutes. Next, a stained state of the incubated cells was analyzed by using DAPI filter and FITC filter of an imaging cytometer, “In Cell Analyzer 2000” (manufactured by GE healthcare). Percentage (%) of […] was determined by In Cell Analyzer Workstation 3.7 (manufactured by GE healthcare). The statistical difference was determined by the Tukey's multiple comparisons of means test (**: P<0.01, *: P<0.05).
# [3] = test system: phosphorylated FAK (pFAK); assay: Western blotting of phosphorylated FAK; conditions: siRNA-transfected cells vs siNeg#1; not shown
# From the text: Because phosphorylation of focal adhesion kinase (FAK), which is activated at Focal adhesion, has been associated with melanoma malignancy (refer to NPL 19), FAK change by ZIC5 was examined. Furthermore, focusing on Integrin, alpha 6 (ITGA6) and platelet-derived growth factor D (PDGFD) among the Focal adhesion-related genes in the altered genes by Zic5 knockdown, change in cells was examined. Specifically, a level of phosphorylated FAK (pFAK), total FAK (FAK), ITGA6, pro-PDGFD, and β-actin in A375 cells transfected with siZIC5 or siNeg was assessed by western blotting. Western blotting was performed in the same manner as above except that anti-pFAK antibody (manufactured by Signalway Antibody), anti-FAK antibody (manufactured by Acris), anti-β-actin antibody (manufactured by Sigma), anti-ITGA6 antibody (manufactured by GeneTex), and anti-PDGFD antibody (manufactured by Santa Cruz) were used.
# [4] = test system: phosphorylated ERK1/2 (Thr202/204) (pERK); assay: Western blotting of phosphorylated ERK1/2; conditions: vemR-3 cells; PLX4032 or DMSO treatment; siRNA vs siNeg
# Procedure: Western blotting was performed in the same manner as above except that anti-pAKT antibody (manufactured by Cell Signaling), anti-AKT antibody (manufactured by Cell Signaling), anti-pERK antibody (manufactured by Cell Signaling), anti-ERK antibody (manufactured by Cell Signaling), and anti-β-actin antibody (manufactured by Sigma) were used.
# vemR-1 to 3 cells and HT144 cells were treated with DMSO or PLX4032 solution (which was dissolved in DMSO to become 5 μM) for 48 hours, and the level of pAKT, AKT, pERK, ERK, and β-actin of these cells was assessed by western blotting in the same manner as Example 8.
# A375 cells were treated in a medium in which a concentration of a FAK inhibitor I (manufactured by Calbiochem) was 0, 1, 2.5, or 5 μM for 24 hours, and the level of ZIC5, pro-PDGFD, pERK, and β-actin was measured by western blotting. Western blotting was performed in the same manner as above except that anti-ZIC5 antibody (manufactured by Aviva systems biology), anti-PDGFD antibody (manufactured by Santa Cruz), anti-pERK antibody (manufactured by Cell Signaling), and anti-β-actin antibody (manufactured by Sigma) were used.
# A375 cells were treated in a medium in which a concentration of Interleukin-6 (IL-6) (manufactured by Novus Biologicals) was 0, 10, or 20 ng/mL for 24 hours, and then western blotting was performed to assess the level of ZIC5, pro-PDGFD, pSTAT3, STAT3, and GAPDH. […]
# A375 cells [5] = assay: Cell morphology after siRNA transfection, A375 cells; conditions: not shown
# SK-MEL-28 cells = assay: Cell morphology after siRNA transfection, SK-MEL-28 cells; conditions: not shown
# vemR-3 cells = assay: Annexin V-positive cells, vemR-3 cells; conditions: vs siNeg
# Procedure: as §1
# A percentage of apoptotic cells in the obtained cells was detected by using FITC labeled Annexin V (manufactured by MBL, Nagoya, Japan) in the same manner as Example 7.
# DU145 cells [6] = assay: Cell number count, DU145 cells; conditions: 0, 2, or 3 days after transfection
# From the text: First, DU145 cells were transfected with siZIC5#1, siZIC5#2, siNeg#1, or siNeg#2 described in Table 2 in the same manner as Example 1, and the number of cells 0, 2, or 3 days after transfection was counted. The result of calculating a relative cell number of each cell (the number of cells on 0th day after transfection (before transfection) was set to 1) (n=3) is shown in FIG. 44.
# The result of calculating a relative cell number of each cell (the number of cells on 0th day after transfection (before transfection) was set to 1) (n=3) is shown in FIG. 47.
substance,measurement,setting,value
"siPDGFD#1: siRNA for PDGFD gene; targeting sequence CAGGAATTACTCGGTCAATAT (SEQ. NO. 28) (listed as DNA, chemistry not given here)",percentage of cells in G1 population,A375 cells [1],71.6%
same,percentage of cells in G2M population,A375 cells [1],18.6%
same,percentage of cells in S population,A375 cells [1],8.1%
same,apoptosis induced by docetaxel (percentage of Annexin V-positive cells),DU145 cells [2],significantly increased
same,FAK phosphorylation (pFAK level),[3],reduced FAK phosphorylation
same,pERK level (inactivation of ERK),[4],the pERK level decreased
same,morphological change of cells after siRNA transfection,A375 cells [5],morphological change occurred
same,morphological change of cells after siRNA transfection,SK-MEL-28 cells,morphological change occurred
same,percentage of Annexin V-positive cells,vemR-3 cells,significantly increased
same,"relative cell number (0th day set to 1), cell proliferation rate",DU145 cells [6],decreased
